From US20220273683A1, “BORON-CONTAINING SMALL MOLECULES” (Bill & Melinda Gates Foundation, priority 2016, published 2022)

Columns and labels:
[1] = system: Streptococcus pneumoniae (ATCC 49619); assay: Antibacterial MIC assay (microbroth dilution, CLSI); type: cell-based; conditions: 3% lysed horse blood, 35° C., 16-20 hours
Description: (§1) All MIC testing of bacteria followed the Clinical and Laboratory Standards Institute (CLSI) guidelines for antimicrobial testing of aerobic bacteria (Methods for Dilution Antimicrobial Susceptibility Tests for Bacteria that Grow Aerobically; Approved Standard—Tenth Edition, M07-A10; Performance Standards for Antimicrobial Susceptibility Testing; Twenty-fifth Informational Supplement, M100-S25).
(§2) Briefly, the microbroth dilution MIC method was used to quantitatively measure the in vitro antibacterial activity of a compound against a given bacterial isolate. The following bacterial strains were evaluated: Staphylococcus aureus, MRSA (ATCC 33591) and Streptococcus pneumoniae (ATCC 49619). Bacteria were grown in cation-adjusted Mueller-Hinton broth, with additions as required per species growth requirements (e.g. 3% lysed horse blood for fastidious organisms such as S. pneumoniae). A direct colony suspension in saline was prepared from colonies on an overnight agar plate to achieve a turbidity equivalent to 0.5 McFarland standard, which was subsequently diluted into the assay plate to achieve 5×10^5 CFU/mL. Assays plates were prepared by 2-fold dilution of compound across the plate and included a positive growth control.

[2] = system: Staphylococcus aureus, MRSA (ATCC 33591); assay: as above; type: cell-based; conditions: 35° C., 16-20 hours
Description: as §1, §2

Row | SMILES | MIC Streptococcus pneumoniae (ATCC 49619) [1] | MIC Staphylococcus aureus, MRSA (ATCC 33591) [2]
1 | C[C@@H]1CC[C@@]23CCC(=O)[C@H]2[C@]1(C)[C@H](OC(=O)COc1ccc2c(c1F)B(O)OC2)C[C@@](C)(C[S+](C)[O-])[C@@H](O)[C@@H]3C (stereo partly drawn) [Compound 30, (3aR,4R,5R,7R,8S,9R,9aS,12R)-8-hydroxy-4,7,9,12-tetramethyl-7-((methylsulfinyl)methyl)-3-oxodecahydro-4,9a-propanocyclopenta[8]annulen-5-yl2-((7-fluoro-1-hydroxy-1,3-dihydrobenzo[c][1,2]oxaborol-6-yl)oxy)acetate] | C (4-32 is C) | B (0.5-2 is B)
2 | CC(=O)NC[C@]1(C)C[C@@H](OC(=O)COc2ccc3c(c2F)B(O)OC3)[C@]2(C)[C@H](C)CC[C@]3(CCC(=O)[C@H]32)[C@@H](C)[C@@H]1O [Compound 48, (3aR,4R,5R,7S,8S,9R,9aS,12R)-7-(acetamidomethyl)-8-hydroxy-4,7,9,12-tetramethyl-3-oxodecahydro-4,9a-propanocyclopenta[8]annulen-5-yl2-((7-fluoro-1-hydroxy-1,3-dihydrobenzo[c][1,2]oxaborol-6-yl)oxy)acetate] | C (4-32 is C) | B (0.5-2 is B)
3 | Cc1noc(/C=C/[C@]2(C)C[C@@H](OC(=O)COc3ccc4c(c3F)B(O)OC4)[C@]3(C)[C@H](C)CC[C@]4(CCC(=O)[C@H]43)[C@@H](C)[C@@H]2O)n1 [Compound 52, (3aR,4R,5R,7S,8S,9R,9aS,12R)-8-hydroxy-4,7,9,12-tetramethyl-7-((E)-2-(3-methyl-1,2,4-oxadiazol-5-yl)vinyl)-3-oxodecahydro-4,9a-propanocyclopenta[8]annulen-5-yl2-((7-fluoro-1-hydroxy-1,3-dihydrobenzo[c][1,2]oxaborol-6-yl)oxy)acetate] | A (MIC of ≤0.25 is A) | A (MIC of ≤0.25 is A)
4 | C[C@@H]1CC[C@@]23CCC(=O)[C@H]2[C@]1(C)[C@H](OC(=O)COc1ccc2c(c1F)B(O)OC2)C[C@@](C)(CNC1CC1)[C@@H](O)[C@@H]3C [Compound 37, (3aR,4R,5R,7S,8S,9R,9aS,12R)-7-((cyclopropylamino)methyl)-8-hydroxy-4,7,9,12-tetramethyl-3-oxodecahydro-4,9a-propanocyclopenta[8]annulen-5-yl2-((7-fluoro-1-hydroxy-1,3-dihydrobenzo[c][1,2]oxaborol-6-yl)oxy)acetate] | C (4-32 is C) | B (0.5-2 is B)
5 | COCC[C@]1(C)C[C@@H](OC(=O)COc2ccc3c(c2F)B(O)OC3)[C@]2(C)[C@H](C)CC[C@]3(CCC(=O)[C@H]32)[C@@H](C)[C@@H]1O [Compound 26, (3aR,4R,5R,7R,8S,9R,9aS,12R)-8-hydroxy-7-(2-methoxyethyl)-4,7,9,12-tetramethyl-3-oxodecahydro-4,9a-propanocyclopenta[8]annulen-5-yl2-((7-fluoro-1-hydroxy-1,3-dihydrobenzo[c][1,2]oxaborol-6-yl)oxy)acetate] | C (4-32 is C) | A (MIC of ≤0.25 is A)
6 | C[C@@H]1CC[C@@]23CCC(=O)[C@H]2[C@]1(C)[C@H](OC(=O)COc1ccc2c(c1F)B(O)OC2)C[C@@](C)(CCN1CCC1)[C@@H](O)[C@@H]3C [Compound 39, (3aR,4R,5R,7R,8S,9R,9aS,12R)-7-(2-(azetidin-1-yl)ethyl)-8-hydroxy-4,7,9,12-tetramethyl-3-oxodecahydro-4,9a-propanocyclopenta[8]annulen-5-yl2-((7-fluoro-1-hydroxy-1,3-dihydrobenzo[c][1,2]oxaborol-6-yl)oxy)acetate] | C (4-32 is C) | C (4-32 is C)
7 | CONC(=O)/C=C/[C@]1(C)C[C@@H](OC(=O)COc2ccc3c(c2F)B(O)OC3)[C@]2(C)[C@H](C)CC[C@]3(CCC(=O)[C@H]32)[C@@H](C)[C@@H]1O [Compound 16, (3aR,4R,5R,7S,8S,9R,9aS,12R)-8-hydroxy-7-((E)-3-(methoxyamino)-3-oxoprop-1-en-1-yl)-4,7,9,12-tetramethyl-3-oxodecahydro-4,9a-propanocyclopenta[8]annulen-5-yl2-((7-fluoro-1-hydroxy-1,3-dihydrobenzo[c][1,2]oxaborol-6-yl)oxy)acetate] | B (0.5-2 is B) | C (4-32 is C)
8 | C[C@@H]1CC[C@@]23CCC(=O)[C@H]2[C@]1(C)[C@H](OC(=O)COc1ccc2c(c1F)B(O)OC2)C[C@@](C)(C=O)[C@@H](O)[C@@H]3C [Compound 31, (3aR,4R,5R,7R,8S,9R,9aS,12R)-7-formyl-8-hydroxy-4,7,9,12-tetramethyl-3-oxodecahydro-4,9a-propanocyclopenta[8]annulen-5-yl2-((7-fluoro-1-hydroxy-1,3-dihydrobenzo[c][1,2]oxaborol-6-yl)oxy)acetate] | B (0.5-2 is B) | A (MIC of ≤0.25 is A)

Other lines, results leading:

Row | MIC Streptococcus pneumoniae (ATCC 49619) [1] | MIC Staphylococcus aureus, MRSA (ATCC 33591) [2] | SMILES
9 | C (4-32 is C) | A (MIC of ≤0.25 is A) | COC[C@]1(C)C[C@@H](OC(=O)COc2ccc3c(c2F)B(O)OC3)[C@]2(C)[C@H](C)CC[C@]3(CCC(=O)[C@H]32)[C@@H](C)[C@@H]1O [Compound 24, (3aR,4R,5R,7S,8S,9R,9aS,12R)-8-hydroxy-7-(methoxymethyl)-4,7,9,12-tetramethyl-3-oxodecahydro-4,9a-propanocyclopenta[8]annulen-5-yl2-((7-fluoro-1-hydroxy-1,3-dihydrobenzo[c][1,2]oxaborol-6-yl)oxy)acetate]
10 | B (0.5-2 is B) | A (MIC of ≤0.25 is A) | C[C@@H]1CC[C@@]23CCC(=O)[C@H]2[C@]1(C)[C@H](OC(=O)COc1ccc2c(c1F)B(O)OC2)C[C@@](C)(CCl)[C@@H](O)[C@@H]3C [Compound 11, (3aR,4R,5R,7R,8S,9R,9aS,12R)-7-(chloromethyl)-8-hydroxy-4,7,9,12-tetramethyl-3-oxodecahydro-4,9a-propanocyclopenta[8]annulen-5-yl2-((7-fluoro-1-hydroxy-1,3-dihydrobenzo[c][1,2]oxaborol-6-yl)oxy)acetate]
11 | B (0.5-2 is B) | A (MIC of ≤0.25 is A) | C=CC[C@]1(C)C[C@@H](OC(=O)COc2ccc3c(c2F)B(O)OC3)[C@]2(C)[C@H](C)CC[C@]3(CCC(=O)[C@H]32)[C@@H](C)[C@@H]1O [Compound 21, (3aR,4R,5R,7R,8S,9R,9aS,12R)-7-allyl-8-hydroxy-4,7,9,12-tetramethyl-3-oxodecahydro-4,9a-propanocyclopenta[8]annulen-5-yl2-((7-fluoro-1-hydroxy-1,3-dihydrobenzo[c][1,2]oxaborol-6-yl)oxy)acetate]
12 | C (4-32 is C) | A (MIC of ≤0.25 is A) | C[C@@H]1CC[C@@]23CCC(=O)[C@H]2[C@]1(C)[C@H](OC(=O)COc1ccc2c(c1F)B(O)OC2)C[C@@](C)(CO)[C@@H](O)[C@@H]3C [Compound 23, (3aR,4R,5R,7S,8S,9R,9aS,12R)-8-hydroxy-7-(hydroxymethyl)-4,7,9,12-tetramethyl-3-oxodecahydro-4,9a-propanocyclopenta[8]annulen-5-yl2-((7-fluoro-1-hydroxy-1,3-dihydrobenzo[c][1,2]oxaborol-6-yl)oxy)acetate]
13 | B (0.5-2 is B) | A (MIC of ≤0.25 is A) | CC[C@]1(C)C[C@@H](OC(=O)COc2ccc3c(c2F)B(O)OC3)[C@]2(C)[C@H](C)CC[C@]3(CCC(=O)[C@H]32)[C@@H](C)[C@@H]1O [Compound 19, (3aR,4R,5R,7R,8S,9R,9aS,12R)-7-ethyl-8-hydroxy-4,7,9,12-tetramethyl-3-oxodecahydro-4,9a-propanocyclopenta[8]annulen-5-yl2-((7-fluoro-1-hydroxy-1,3-dihydrobenzo[c][1,2]oxaborol-6-yl)oxy)acetate]
14 | C (4-32 is C) | B (0.5-2 is B) | CNC[C@]1(C)C[C@@H](OC(=O)COc2ccc3c(c2F)B(O)OC3)[C@]2(C)[C@H](C)CC[C@]3(CCC(=O)[C@H]32)[C@@H](C)[C@@H]1O [Compound 32, (3aR,4R,5R,7S,8S,9R,9aS,12R)-8-hydroxy-4,7,9,12-tetramethyl-7-((methylamino)methyl)-3-oxodecahydro-4,9a-propanocyclopenta[8]annulen-5-yl2-((7-fluoro-1-hydroxy-1,3-dihydrobenzo[c][1,2]oxaborol-6-yl)oxy)acetate]
15 | C (4-32 is C) | A (MIC of ≤0.25 is A) | CSC[C@]1(C)C[C@@H](OC(=O)COc2ccc3c(c2F)B(O)OC3)[C@]2(C)[C@H](C)CC[C@]3(CCC(=O)[C@H]32)[C@@H](C)[C@@H]1O [Compound 29, (3aR,4R,5R,7R,8S,9R,9aS,12R)-8-hydroxy-4,7,9,12-tetramethyl-7-((methylthio)methyl)-3-oxodecahydro-4,9a-propanocyclopenta[8]annulen-5-yl2-((7-fluoro-1-hydroxy-1,3-dihydrobenzo[c][1,2]oxaborol-6-yl)oxy)acetate]
